Assay results published in publication doi:10.1101/2024.12.16.628070v1 (bioRxiv, 2024).
pKd: −log10 of the molar value. ≈ marks a conversion by molar mass, not a printed value. Read-outs that look alike come from different tables or passages of the source. Blank lines part the entries; values can stand above or below the molecule they belong to. Where no end group is shown, it is not given here.

Assays:
E. coli M6 = format: cell-based, Escherichia coli
[1] = molecular target: BamA-β (transmembrane β-barrel domain of BamA) (Escherichia coli, UniProt P0A940, C690S/C700S); test: Surface Plasmon Resonance affinity to BamA-β in LDAO micelles; format: binding
Bacillus subtilis = test: MIC, broth microdilution; format: cell-based; details: strain ATCC 6633
[2] = Single-dose pharmacokinetic study; format: in vivo; details: mouse, blood, ip, 50 mg/kg
Morganella morganii = test: MIC, broth microdilution; format: cell-based
Salmonella entereditis = test: MIC, broth microdilution; format: cell-based; details: strain ATCC 13076
Salmonella typhimurium = test: MIC, broth microdilution; format: cell-based; details: strain ATCC 14028
Enterobacter cloacae = test: MIC, broth microdilution; format: cell-based
Escherichia coli = format: cell-based
Bacillus cereus = test: MIC, broth microdilution; format: cell-based; details: strain ATCC 11778
BAM complex = BAM complex (Escherichia coli, UniProt P0A940); test: Differential Scanning Fluorimetry of BAM complex in nanodiscs; format: binding; details: read-out: increase in melting temperature (Tm)
Staphylococcus aureus = test: MIC, broth microdilution; format: cell-based
Pseudomonas aeruginosa = test: MIC, broth microdilution; format: cell-based
Shigella flexneri = test: MIC, broth microdilution; format: cell-based; details: strain M90T
Klebsiella pneumoniae = test: MIC, broth microdilution; format: cell-based
Acinetobacter baumannii = test: MIC, broth microdilution; format: cell-based
Enterococcus faecalis = test: MIC, broth microdilution; format: cell-based; details: strain ATCC 29212
[3] = K12 MG1655 BamA F394V, E435K, G443D
[4] = strain ATCC 25922 (WT), broth microdilution, MHB, 18-20 h, 37 °C

Molecule: colistin [reference compound]
time to development of resistance in serial passage (E. coli M6; sub-inhibitory concentrations, MHB): 3 days

Molecule: CC(C)[C@@H]1NC(=O)[C@@H](N)Cc2c[nH]c3cc(ccc23)C(C(N)=O)[C@@H](C(=O)N[C@@H](C)C(=O)N[C@H]2Cc3cccc(c3)C(CCNC(=N)N)[C@@H](C(=O)N[C@H]3Cc4c[nH]c5cc(ccc45)C(CCCN)[C@@H](C(=O)N[C@@H](CO)C(=O)N[C@@H](Cc4ccccc4)C(=O)O)NC(=O)[C@H](CO)NC3=O)NC(=O)[C@H](C)NC2=O)NC1=O (stereo partly shown) [Compound 2, xenorceptide A2]
pKd ([1]; KD, steady state response, SPR, BamA-β, concentration range 0.019 µM to 20 µM): ~6.10
koff ([1]; read-out: kd (dissociation rate)): 0.0673 s⁻¹
MIC (Bacillus subtilis): >64 µg/mL
Tmax [2]: 2 h
Cmax ([2]; SD): 60.7 µg/mL
half-life ([2]; SD): 2.4 h
MIC (Morganella morganii; strain ATCC 25830): 32 µg/mL (≈ 21.4 µM)
MIC (Morganella morganii; strain CRE1001): 32 µg/mL (≈ 21.4 µM)
MIC (Salmonella entereditis): 8 µg/mL (≈ 5.36 µM)
MIC (Salmonella typhimurium): 8 µg/mL (≈ 5.36 µM)
MIC (Enterobacter cloacae; strain CRE1010): 4 µg/mL (≈ 2.68 µM)
MIC (Enterobacter cloacae; strain CRE1014): 16 µg/mL (≈ 10.7 µM)
MIC (Enterobacter cloacae; strain CRE1015): 32 µg/mL (≈ 21.4 µM)
MIC (Enterobacter cloacae; strain CRE1016): 16 µg/mL (≈ 10.7 µM)
MIC (Enterobacter cloacae; strain CRE1017): 32 µg/mL (≈ 21.4 µM)
MIC (Escherichia coli; [3]): 8 µg/mL (≈ 5.36 µM)
MIC (Escherichia coli; K12 MG1655 BamA G429V, G807V): 8 µg/mL (≈ 5.36 µM)
MIC (Escherichia coli; MG1655 bamA G429C, generated in the present study): 32 µg/mL (≈ 21.4 µM)
MIC (Escherichia coli; strain 1 (darobactin-resistant MG1655 strain previously reported)): 8 µg/mL (≈ 5.36 µM)
MIC (Escherichia coli; strain 2 (darobactin-resistant MG1655 strain previously reported)): 8 µg/mL (≈ 5.36 µM)
MIC (Escherichia coli; [4]): 2 µg/mL (≈ 1.34 µM)
MIC (Escherichia coli; strain CRE1006, broth microdilution, MHB, 18-20 h, 37 °C): 4 µg/mL (≈ 2.68 µM)
MIC (Escherichia coli; strain K12 MG1655 (WT)): 2 µg/mL (≈ 1.34 µM)
MIC (Escherichia coli; strain M2, broth microdilution, MHB, 18-20 h, 37 °C, repeated three times): 16 µg/mL (≈ 10.7 µM)
MIC (Escherichia coli; strain M6, broth microdilution, MHB, 18-20 h, 37 °C): 8 µg/mL (≈ 5.36 µM)
MIC (Escherichia coli; strain M10, broth microdilution, MHB, 18-20 h, 37 °C): 4 µg/mL (≈ 2.68 µM)
MIC (Escherichia coli; strain M11, broth microdilution, MHB, 18-20 h, 37 °C): 4 µg/mL (≈ 2.68 µM)
MIC (Bacillus cereus): >64 µg/mL
ΔTm at 20 µM (BAM complex): 3.8 °C
MIC (Staphylococcus aureus; strain ATCC 29737): >64 µg/mL
MIC (Staphylococcus aureus; strain ATCC 43300): >64 µg/mL
MIC (Pseudomonas aeruginosa; strain ATCC 9027): 64 µg/mL (≈ 42.9 µM)
MIC (Pseudomonas aeruginosa; strain DM4150R): 64 µg/mL (≈ 42.9 µM)
MIC (Pseudomonas aeruginosa; strain DM23376): >64 µg/mL
MIC (Pseudomonas aeruginosa; strain DR4877/07): 64 µg/mL (≈ 42.9 µM)
MIC (Pseudomonas aeruginosa; strain DR5790/07): 64 µg/mL (≈ 42.9 µM)
MIC (Shigella flexneri): 2 µg/mL (≈ 1.34 µM)
MIC (Klebsiella pneumoniae; strain ATCC 700603): 8 µg/mL (≈ 5.36 µM)
MIC (Klebsiella pneumoniae; strain CRE1007): 8 µg/mL (≈ 5.36 µM)
MIC (Klebsiella pneumoniae; strain CRE1008): 8 µg/mL (≈ 5.36 µM)
MIC (Klebsiella pneumoniae; strain CRE1011): 8 µg/mL (≈ 5.36 µM)
MIC (Klebsiella pneumoniae; strain CRE1012): 8 µg/mL (≈ 5.36 µM)
MIC (Klebsiella pneumoniae; strain M7): 64 µg/mL (≈ 42.9 µM)
MIC (Acinetobacter baumannii; strain ACBA1001): 32 µg/mL (≈ 21.4 µM)
MIC (Acinetobacter baumannii; strain ACBA1002): 32 µg/mL (≈ 21.4 µM)
MIC (Acinetobacter baumannii; strain ACBA1003): 32 µg/mL (≈ 21.4 µM)
MIC (Acinetobacter baumannii; strain ACBA1004): 64 µg/mL (≈ 42.9 µM)
MIC (Acinetobacter baumannii; strain ATCC 19606): >64 µg/mL
MIC after resistance development in serial passage (E. coli M6; after 5-7 days of passage): 32 µg/mL (≈ 21.4 µM)

Molecule: WINAFGNWTKSF (also: bicyclic or more (positions not given here)) [Compound 16, xenorceptide A16]
MIC (Enterococcus faecalis): >64 µg/mL
MIC (Enterobacter cloacae; strain ATCC 13047): >64 µg/mL
MIC (Escherichia coli; [4]): >64 µg/mL
MIC (Staphylococcus aureus; strain ATCC 29737): >64 µg/mL
MIC (Klebsiella pneumoniae; strain ATCC 700603): >64 µg/mL
MIC (Acinetobacter baumannii; strain ATCC 19606): >64 µg/mL

Molecule: WVNAFANWSKAL (also: bicyclic or more (positions not given here)) [Compound 15, xenorceptide A15]
MIC (Enterococcus faecalis): >64 µg/mL
MIC (Enterobacter cloacae; strain ATCC 13047): >64 µg/mL
MIC (Escherichia coli; [4]): 64 µg/mL
MIC (Staphylococcus aureus; strain ATCC 29737): >64 µg/mL
MIC (Klebsiella pneumoniae; strain ATCC 700603): >64 µg/mL
MIC (Acinetobacter baumannii; strain ATCC 19606): >64 µg/mL

MIC (Bacillus subtilis): >64 µg/mL
MIC (Morganella morganii; strain ATCC 25830): 64 µg/mL
MIC (Escherichia coli; [4]): 8 µg/mL
MIC (Staphylococcus aureus; strain ATCC 29737): >64 µg/mL
MIC (Pseudomonas aeruginosa; strain ATCC 9027): 64 µg/mL
MIC (Klebsiella pneumoniae; strain ATCC 700603): 8 µg/mL
MIC (Acinetobacter baumannii; strain ATCC 19606): >64 µg/mL
Molecule: WINAFANWTKRI (also: bicyclic or more (positions not given here)) [Compound 3, xenorceptide A3]

MIC (Escherichia coli; [4]): 2 µg/mL
MIC (Staphylococcus aureus; strain ATCC 29737): >64 µg/mL
MIC (Pseudomonas aeruginosa; strain ATCC 9027): 64 µg/mL
MIC (Klebsiella pneumoniae; strain ATCC 700603): 4 µg/mL
MIC (Acinetobacter baumannii; strain ATCC 19606): >64 µg/mL
Molecule: WVNAFANWTKRF (also: bicyclic or more (positions not given here)) [Compound 8, xenorceptide A8]

Molecule: dynobactin A [reference compound]
MIC (Escherichia coli; [3]): 16 µg/mL
MIC (Escherichia coli; K12 MG1655 BamA G429V, G807V): > 128 µg/mL
MIC (Escherichia coli; [4]): 8 µg/mL
MIC (Escherichia coli; strain K12 MG1655 (WT)): 16 µg/mL

Molecule: WVNAFANWSKSF (also: bicyclic or more (positions not given here)) [Compound 6, xenorceptide A6]
MIC (Escherichia coli; [4]): 64 µg/mL
MIC (Staphylococcus aureus; strain ATCC 29737): >64 µg/mL
MIC (Pseudomonas aeruginosa; strain ATCC 9027): >64 µg/mL
MIC (Klebsiella pneumoniae; strain ATCC 700603): >64 µg/mL
MIC (Acinetobacter baumannii; strain ATCC 19606): >64 µg/mL

MIC (Enterococcus faecalis): >64 µg/mL
MIC (Enterobacter cloacae; strain ATCC 13047): 8 µg/mL
MIC (Escherichia coli; [4]): 4 µg/mL
MIC (Staphylococcus aureus; strain ATCC 29737): >64 µg/mL
MIC (Klebsiella pneumoniae; strain ATCC 700603): 8 µg/mL
MIC (Acinetobacter baumannii; strain ATCC 19606): >64 µg/mL
Molecule: WVNAFAKWTKRI (also: bicyclic or more (positions not given here)) [Compound 11, xenorceptide A11]

Molecule: WVNAFANWPKRF (also: bicyclic or more (positions not given here)) [Compound 13, xenorceptide A13]
MIC (Enterococcus faecalis): >64 µg/mL
MIC (Enterobacter cloacae; strain ATCC 13047): >64 µg/mL
MIC (Escherichia coli; [4]): 8 µg/mL
MIC (Staphylococcus aureus; strain ATCC 29737): >64 µg/mL
MIC (Klebsiella pneumoniae; strain ATCC 700603): 32 µg/mL
MIC (Acinetobacter baumannii; strain ATCC 19606): >64 µg/mL

Molecule: WVNAFARWDKKF (also: bicyclic or more (positions not given here)) [Compound 7, xenorceptide A7]
MIC (Escherichia coli; [4]): 64 µg/mL
MIC (Staphylococcus aureus; strain ATCC 29737): >64 µg/mL
MIC (Pseudomonas aeruginosa; strain ATCC 9027): >64 µg/mL
MIC (Klebsiella pneumoniae; strain ATCC 700603): >64 µg/mL
MIC (Acinetobacter baumannii; strain ATCC 19606): >64 µg/mL

Molecule: WVNAFVNWPKSF (also: bicyclic or more (positions not given here)) [Compound 5, xenorceptide A5]
MIC (Escherichia coli; [4]): 16 µg/mL
MIC (Staphylococcus aureus; strain ATCC 29737): >64 µg/mL
MIC (Pseudomonas aeruginosa; strain ATCC 9027): >64 µg/mL
MIC (Klebsiella pneumoniae; strain ATCC 700603): 32 µg/mL
MIC (Acinetobacter baumannii; strain ATCC 19606): >64 µg/mL

MIC (Bacillus subtilis): >64 µg/mL
MIC (Morganella morganii; strain ATCC 25830): 64 µg/mL
MIC (Escherichia coli; [4]): 8 µg/mL
MIC (Staphylococcus aureus; strain ATCC 29737): >64 µg/mL
MIC (Pseudomonas aeruginosa; strain ATCC 9027): >64 µg/mL
MIC (Klebsiella pneumoniae; strain ATCC 700603): 16 µg/mL
MIC (Acinetobacter baumannii; strain ATCC 19606): >64 µg/mL
Molecule: WVNAYARWTNRF (also: bicyclic or more (positions not given here)) [Compound 4, xenorceptide A4]

Molecule: WVNAFGNWSKSL (also: bicyclic or more (positions not given here)) [Compound 14, xenorceptide A14]
MIC (Enterococcus faecalis): >64 µg/mL
MIC (Enterobacter cloacae; strain ATCC 13047): 64 µg/mL
MIC (Escherichia coli; [4]): 64 µg/mL
MIC (Staphylococcus aureus; strain ATCC 29737): >64 µg/mL
MIC (Klebsiella pneumoniae; strain ATCC 700603): >64 µg/mL
MIC (Acinetobacter baumannii; strain ATCC 19606): >64 µg/mL

Molecule: WVNAYARWTKRF (also: bicyclic or more (positions not given here)) [Compound 12, xenorceptide A12]
MIC (Enterococcus faecalis): >64 µg/mL
MIC (Enterobacter cloacae; strain ATCC 13047): >64 µg/mL
MIC (Escherichia coli; [4]): 4 µg/mL
MIC (Staphylococcus aureus; strain ATCC 29737): >64 µg/mL
MIC (Klebsiella pneumoniae; strain ATCC 700603): 16 µg/mL
MIC (Acinetobacter baumannii; strain ATCC 19606): >64 µg/mL
